Data set [1] deals with SARS-CoV-2 isolate USA-WA1/2020. Put plainly: microbe, parasite or virus in culture. The data set is classed as cell-based. To be noted: Severe acute respiratory syndrome coronavirus 2, Vero C1008, Vero E6 TMPRSS ACE2 cells, treated 1 hr with compound, MOI=0.1, 48 h; for EC50: read-out: CPE EC50; for EC90: read-out: CPE EC90.
The nature of the next data set: in vitro. To be noted: African green monkey.

For `COC(=O)/C=C/C(=O)NNC(=O)CCc1ccccc1C(=O)NC1(c2cccc3ccccc23)CC1` [NEU-7768], in data set [1], the EC50 (in general, the concentration giving half of the maximal effect) is 22 nM and the EC90 (commonly the point of the concentration-response curve where the effect stands at 90%) stood at 250 nM. For the same compound, in “in vitro”, the CC50 at 48 h was greater than 10000 nM.

As to `COC(=O)/C=C/C(=O)NNC(=O)CCc1ccccc1C(=O)NC1(c2cccc3ccccc23)COC1` [NEU-7769], in data set [1], the EC50 stood at 1500 nM and the concentration for an effect of 90% (EC90) was found to be 3200 nM. This compound also had a CC50 at 48 h in “in vitro” greater than 10000 nM.

As to `COC(=O)/C=C/C(=O)NNC(=O)CCc1ccccc1C(=O)N[C@H](C)c1cccc(-c2cnc(CN3CC[C@H](O)C3)s2)c1` [NEU-7770], in data set [1], the EC50 amounted to 140 nM and the EC90 is 880 nM. For the same compound, the CC50 at 48 h in “in vitro” is greater than 10000 nM.

For `COC(=O)/C=C/C(=O)NNC(=O)CCc1ccccc1C(=O)N[C@@H](c1cccc2ccccc12)C(F)(F)F` [NEU-7772], the concentration giving a half-maximal response (EC50) in data set [1] is greater than 10000 nM. Further, in “in vitro”, the CC50 at 48 h is greater than 10000 nM.

On to `COC(=O)/C=C/C(=O)NNC(=O)C(F)(F)c1ccccc1C(=O)N[C@H](C)c1cccc2ccccc12` [NEU-7792], for which, in data set [1], the half-maximal effective concentration (EC50) worked out at 240 nM and the 90% effect concentration (EC90) amounted to 820 nM. In “in vitro”, this compound gave a CC50 at 48 h greater than 10000 nM.

As for `C[C@@H](NC(=O)c1ccccc1CCC(=O)NNC(=O)/C=C/C(=O)O)c1cccc2ccccc12` [NEU-8114], in data set [1], the concentration for a half-maximal effect (EC50) was found to be 15 nM and the EC90 is 160 nM. For the same compound, the CC50 at 48 h in the data set “in vitro” was greater than 10000 nM.

(Values after patent US20240317707A1, “COVALENT AND NON-COVALENT INHIBITORS OF CORONAVIRUS PAPAIN-LIKE PROTEASE” (UT-Battelle, LLC, priority 2023, published 2024).)
